Data reported in PMC10290954 (Nature Metabolism, 2023).

Columns and labels:
Type in all cases: cell-based
human islets [1] = assay: Human islet perifusion, insulin secretion (Fig. 2); details: human islets stimulated with TZP; for TZP insulin secretion iAUC, Percent Control: % of Average Control (PBS); for TZP insulin secretion iAUC: PBS or antagonist(s) as labelled
Experimental: (§1) Human islets were obtained from both the Alberta Diabetes Institute and the Integrated Islet Distribution Program. All islets were obtained from consenting donors. Details for the general perifusion protocol have been previously described[21] and are similar to the mouse perifusion protocol. […] Each set of human islets consisted of n = 3 for each condition. These were averaged to generate a single data point (Fig. 2c). Insulin values were measured with a Lumit insulin immunoassay (Promega) using an EnVision plate reader (PerkinElmer). For the glucagon secretion experiments (Fig. 3), the average glucagon values were calculated during control (minutes 35–45) and stimulated (minutes 55–65) conditions. All peptides were used at 30 nM concentrations based on previous work[16]. Amino acids were used at concentrations of 3 mM based on previous work[11]. Glucagon was measured with a Lumit Glucagon Immunoassay Kit (cat. no. CS3037A02; Promega) using an EnVision plate reader (PerkinElmer). Somatostatin was measured with an ELISA assay (cat. no. FEK-060-14; Phoenix Pharmaceuticals). All data are expressed as the measured concentration relative to both flow rate and islet number (insulin, ng ml^–1 × (1/200 µl ml^–1) × (1/75 islets); glucagon, pM × (1/200 µl ml^–1) × (1/75 islets); somatostatin, pg ml^–1 × (1/200 µl ml^–1) × (1/75 islets))[49]. Human pancreatic islets and pancreas tissue were isolated from deceased donors under ethical approval from the Human Research Ethics Board of the University of Alberta (Pro00013094, Pro00001754) and obtained from the NIDDK-funded Integrated Islet Distribution Program (IIDP) (RRID: SCR _014387). All donors’ families gave informed consent for the use of pancreatic tissue in research and were not financially compensated.

human islets [2] = assay: Human islet perifusion, insulin secretion with Ex9 or hGIP(3-30) (Extended Data Fig. 2); design: key to iAUC: insulin iAUC, ng/ml × (1/200 µl/ml) × (1/75 islets), baseline = first point; details: insulin secretion; for Mean (One way ANOVA): iAUC, Control = 1, mean of n = 3; for iAUC: TZP + PBS or labelled antagonist
Experimental: as §1
The integrated area under the curve (iAUC) was calculated for both glucose and tirzepatide stimulated insulin secretion using the value of the first time point as the baseline. All values are mean + /- SEM, n = 3/group. A one-way ANOVA with Tukey’s posthoc test was used. Source data

mouse islets [3] = assay: Mouse islet perifusion with incretin receptor antagonists (Fig. 1b), insulin secretion; details: antagonists 1 μM, tirzepatide 0–100 nM
Experimental: (§2) In brief, islets were individually picked to ensure consistency across chambers with respect to both number and size. […] Insulin values were measured with a Lumit insulin immunoassay (Promega) using an EnVision plate reader (PerkinElmer).

mouse islets [4] = assay: Mouse islet perifusion, control and Gipr beta-cell knockout islets ± Ex9 (Fig. 1a), insulin secretion; details: Ex9 1 μM
Experimental: as §2

Which results are given for exendin(9-39) [Ex9]?
TZP insulin secretion iAUC, Percent Control (human islets [1]; donor R434, replicate 1): 81.0 %Control; TZP insulin secretion iAUC, Percent Control (human islets [1]; donor R434, replicate 2): 70.5 %Control; TZP insulin secretion iAUC, Percent Control (human islets [1]; donor R434, replicate 3): 110.7 %Control; TZP insulin secretion iAUC (human islets [1]; donor R434, replicate 1): 149.1; TZP insulin secretion iAUC (human islets [1]; donor R434, replicate 2): 129.7; TZP insulin secretion iAUC (human islets [1]; donor R434, replicate 3): 203.7; TZP insulin secretion iAUC, Percent Control (human islets [1]; donor R443, replicate 1): 152.6 %Control; TZP insulin secretion iAUC, Percent Control (human islets [1]; donor R443, replicate 2): 43.9 %Control; TZP insulin secretion iAUC, Percent Control (human islets [1]; donor R443, replicate 3): 123.9 %Control; TZP insulin secretion iAUC (human islets [1]; donor R443, replicate 1): 9.764; TZP insulin secretion iAUC (human islets [1]; donor R443, replicate 2): 2.809; TZP insulin secretion iAUC (human islets [1]; donor R443, replicate 3): 7.929; TZP insulin secretion iAUC, Percent Control (human islets [1]; donor R444, replicate 1): 49.3 %Control; TZP insulin secretion iAUC, Percent Control (human islets [1]; donor R444, replicate 2): 46.5 %Control; TZP insulin secretion iAUC, Percent Control (human islets [1]; donor R444, replicate 3): 59.5 %Control; TZP insulin secretion iAUC (human islets [1]; donor R444, replicate 1): 12.31; TZP insulin secretion iAUC (human islets [1]; donor R444, replicate 2): 11.61; TZP insulin secretion iAUC (human islets [1]; donor R444, replicate 3): 14.86; TZP insulin secretion iAUC, Percent Control (human islets [1]; donor R448, replicate 1): 95.4 %Control; TZP insulin secretion iAUC, Percent Control (human islets [1]; donor R448, replicate 2): 86.1 %Control; TZP insulin secretion iAUC, Percent Control (human islets [1]; donor R448, replicate 3): 78.6 %Control; TZP insulin secretion iAUC (human islets [1]; donor R448, replicate 1): 169.1; TZP insulin secretion iAUC (human islets [1]; donor R448, replicate 2): 152.5; TZP insulin secretion iAUC (human islets [1]; donor R448, replicate 3): 139.2; TZP insulin secretion iAUC, Percent Control (human islets [1]; donor R449, replicate 1): 10.8 %Control; TZP insulin secretion iAUC, Percent Control (human islets [1]; donor R449, replicate 2): 15.5 %Control; TZP insulin secretion iAUC, Percent Control (human islets [1]; donor R449, replicate 3): 25.1 %Control; TZP insulin secretion iAUC (human islets [1]; donor R449, replicate 1): 14.8; TZP insulin secretion iAUC (human islets [1]; donor R449, replicate 2): 21.27; TZP insulin secretion iAUC (human islets [1]; donor R449, replicate 3): 34.32; TZP insulin secretion iAUC, Percent Control (human islets [1]; donor R451, replicate 1): 39.0 %Control; TZP insulin secretion iAUC, Percent Control (human islets [1]; donor R451, replicate 2): 22.6 %Control; TZP insulin secretion iAUC, Percent Control (human islets [1]; donor R451, replicate 3): 24.7 %Control; TZP insulin secretion iAUC (human islets [1]; donor R451, replicate 1): 36.08; TZP insulin secretion iAUC (human islets [1]; donor R451, replicate 2): 20.91; TZP insulin secretion iAUC (human islets [1]; donor R451, replicate 3): 22.84; TZP insulin secretion iAUC, Percent Control (human islets [1]; donor S1472, replicate 1): 91.9 %Control; TZP insulin secretion iAUC, Percent Control (human islets [1]; donor S1472, replicate 2): 146.0 %Control; TZP insulin secretion iAUC, Percent Control (human islets [1]; donor S1472, replicate 3): 127.6 %Control; TZP insulin secretion iAUC (human islets [1]; donor S1472, replicate 1): 50.05; TZP insulin secretion iAUC (human islets [1]; donor S1472, replicate 2): 79.46; TZP insulin secretion iAUC (human islets [1]; donor S1472, replicate 3): 69.48; TZP insulin secretion iAUC, Percent Control (human islets [1]; donor S2886, replicate 1): 19.6 %Control; TZP insulin secretion iAUC, Percent Control (human islets [1]; donor S2886, replicate 2): 20.0 %Control; TZP insulin secretion iAUC, Percent Control (human islets [1]; donor S2886, replicate 3): 50.9 %Control; TZP insulin secretion iAUC (human islets [1]; donor S2886, replicate 1): 36.46; TZP insulin secretion iAUC (human islets [1]; donor S2886, replicate 2): 37.22; TZP insulin secretion iAUC (human islets [1]; donor S2886, replicate 3): 94.97; Mean (One way ANOVA) (human islets [2]; donor R464, R464 (3-30) TZP): 1.267; Mean (One way ANOVA) (human islets [2]; donor S5423, SAMN5423 (3-30) TZP): 1.135; iAUC (human islets [2]; donor R464, replicate 1): 1.277; iAUC (human islets [2]; donor R464, replicate 2): 1.0253; iAUC (human islets [2]; donor R464, replicate 3): 1.497; iAUC (human islets [2]; donor S5423, replicate 1): 1.294; iAUC (human islets [2]; donor S5423, replicate 2): 1.08; iAUC (human islets [2]; donor S5423, replicate 3): 1.031; Effect on tirzepatide-stimulated insulin secretion (mouse islets [3]): prevented insulin secretion in response to tirzepatide; Effect on tirzepatide-stimulated insulin secretion (mouse islets [4]): completely blocked insulin secretion in response to tirzepatide
